Columns and labels:
Test in all cases: radiometric filter-binding kinase assay
[1] = test system: AKT1 (human), P31749 [S473D]
[2] = biological target: AURKA (human) (UniProt O14965); conditions: compound 0.1 µM
[3] = biological target: BRSK1 (human) (UniProt Q8TDC3); conditions: compound 0.1 µM
[4] = biological target: DYRK2 (human) (UniProt Q92630)
[5] = biological target: EEF2K (human) (UniProt O00418)
[6] = biological target: EPHA2 (human) (UniProt P29317)
[7] = biological target: EPHB3 (human) (UniProt P54753)
[8] = biological target: ERBB4 (human) (UniProt Q15303)
ERBB4 (human), sequence (Q15303 whole entry, looked up): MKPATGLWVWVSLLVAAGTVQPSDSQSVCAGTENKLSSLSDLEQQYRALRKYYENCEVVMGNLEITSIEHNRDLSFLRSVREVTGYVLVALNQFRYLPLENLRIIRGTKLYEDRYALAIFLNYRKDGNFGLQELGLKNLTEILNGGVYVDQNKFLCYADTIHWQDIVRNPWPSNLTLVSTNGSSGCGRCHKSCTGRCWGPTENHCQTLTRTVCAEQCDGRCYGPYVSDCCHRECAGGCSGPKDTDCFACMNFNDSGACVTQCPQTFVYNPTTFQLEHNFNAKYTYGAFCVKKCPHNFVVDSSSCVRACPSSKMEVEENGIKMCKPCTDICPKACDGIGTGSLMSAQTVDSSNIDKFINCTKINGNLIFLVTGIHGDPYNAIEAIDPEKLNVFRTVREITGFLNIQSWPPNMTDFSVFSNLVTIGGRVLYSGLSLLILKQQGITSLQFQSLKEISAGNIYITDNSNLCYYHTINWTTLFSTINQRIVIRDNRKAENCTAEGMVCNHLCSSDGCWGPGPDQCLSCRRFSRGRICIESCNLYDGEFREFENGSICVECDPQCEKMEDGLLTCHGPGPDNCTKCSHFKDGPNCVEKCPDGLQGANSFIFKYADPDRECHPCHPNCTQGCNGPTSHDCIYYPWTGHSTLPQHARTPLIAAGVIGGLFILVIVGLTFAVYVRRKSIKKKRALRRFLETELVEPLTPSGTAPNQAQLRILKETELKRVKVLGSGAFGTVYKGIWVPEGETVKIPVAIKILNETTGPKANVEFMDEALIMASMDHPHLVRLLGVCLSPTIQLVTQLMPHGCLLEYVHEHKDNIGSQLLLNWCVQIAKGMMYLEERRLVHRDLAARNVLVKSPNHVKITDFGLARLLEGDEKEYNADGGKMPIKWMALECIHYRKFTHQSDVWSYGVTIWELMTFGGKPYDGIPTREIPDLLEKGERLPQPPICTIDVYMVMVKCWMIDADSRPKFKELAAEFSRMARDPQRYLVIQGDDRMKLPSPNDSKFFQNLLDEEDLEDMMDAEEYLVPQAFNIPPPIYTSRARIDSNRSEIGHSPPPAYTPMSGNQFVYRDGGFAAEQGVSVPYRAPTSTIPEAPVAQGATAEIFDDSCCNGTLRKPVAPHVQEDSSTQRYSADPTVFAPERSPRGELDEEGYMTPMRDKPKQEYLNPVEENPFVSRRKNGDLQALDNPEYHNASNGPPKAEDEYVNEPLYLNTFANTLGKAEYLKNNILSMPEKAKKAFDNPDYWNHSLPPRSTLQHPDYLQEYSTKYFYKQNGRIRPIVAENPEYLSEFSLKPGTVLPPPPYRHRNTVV

[9] = biological target: GSK3B (human) (UniProt P49841)
[10] = biological target: HIPK3 (human) (UniProt Q9H422); conditions: compound 0.1 µM
[11] = biological target: INSR (human) (UniProt P06213)
[12] = biological target: IRAK4 (human) (UniProt Q9NWZ3)
IRAK4 (human), sequence (Q9NWZ3 whole entry, looked up): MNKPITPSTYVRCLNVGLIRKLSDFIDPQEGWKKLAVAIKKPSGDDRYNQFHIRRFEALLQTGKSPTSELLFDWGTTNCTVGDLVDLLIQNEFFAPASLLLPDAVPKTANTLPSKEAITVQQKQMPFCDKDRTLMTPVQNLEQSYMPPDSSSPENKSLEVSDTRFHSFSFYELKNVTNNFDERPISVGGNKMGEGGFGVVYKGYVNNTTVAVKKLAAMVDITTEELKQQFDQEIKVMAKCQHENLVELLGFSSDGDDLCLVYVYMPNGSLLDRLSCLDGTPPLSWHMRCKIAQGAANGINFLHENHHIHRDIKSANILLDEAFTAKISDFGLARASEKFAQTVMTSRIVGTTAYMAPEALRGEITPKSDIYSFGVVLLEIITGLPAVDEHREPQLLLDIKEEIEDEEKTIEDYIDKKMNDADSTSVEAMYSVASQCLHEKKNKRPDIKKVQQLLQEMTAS

[13] = biological target: MAP2K2 (human) (UniProt P36507); conditions: compound 0.1 µM
[14] = biological target: MAP2K6 (human) (UniProt P52564); conditions: compound 0.1 µM
[15] = biological target: MAP3K1 (human) (UniProt Q13233); conditions: compound 0.1 µM
[16] = biological target: MAP3K11 (human) (UniProt Q16584)
MAP3K11 (human), sequence (Q16584 whole entry, looked up): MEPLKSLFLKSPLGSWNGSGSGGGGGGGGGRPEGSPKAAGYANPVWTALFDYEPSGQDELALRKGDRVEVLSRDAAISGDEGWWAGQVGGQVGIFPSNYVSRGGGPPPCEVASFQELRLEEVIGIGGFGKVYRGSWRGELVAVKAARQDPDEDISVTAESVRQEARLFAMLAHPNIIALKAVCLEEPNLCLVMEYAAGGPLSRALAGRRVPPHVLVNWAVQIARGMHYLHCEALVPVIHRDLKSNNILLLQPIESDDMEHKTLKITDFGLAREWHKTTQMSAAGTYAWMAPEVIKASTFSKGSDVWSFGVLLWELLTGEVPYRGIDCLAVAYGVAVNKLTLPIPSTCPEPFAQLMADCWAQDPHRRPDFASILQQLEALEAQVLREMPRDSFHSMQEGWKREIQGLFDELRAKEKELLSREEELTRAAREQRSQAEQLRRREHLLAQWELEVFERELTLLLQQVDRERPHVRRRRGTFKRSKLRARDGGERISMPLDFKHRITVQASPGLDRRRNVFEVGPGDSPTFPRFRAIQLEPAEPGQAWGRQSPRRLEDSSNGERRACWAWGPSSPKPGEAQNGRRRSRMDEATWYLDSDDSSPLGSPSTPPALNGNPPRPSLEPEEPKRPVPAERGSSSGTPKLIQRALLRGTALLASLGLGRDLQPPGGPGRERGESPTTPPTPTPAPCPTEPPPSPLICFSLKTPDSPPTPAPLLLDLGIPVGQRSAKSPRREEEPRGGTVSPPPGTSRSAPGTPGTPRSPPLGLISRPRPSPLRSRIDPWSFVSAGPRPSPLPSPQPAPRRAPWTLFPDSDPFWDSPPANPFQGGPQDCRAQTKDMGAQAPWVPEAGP

[17] = biological target: MAP3K5 (human) (UniProt Q99683); conditions: compound 0.1 µM
[18] = biological target: MAP3K7 TAB1 (human) (UniProt Q15750+O43318); conditions: compound 0.1 µM
[19] = biological target: MAP3K9 (human) (UniProt P80192)
[20] = biological target: MAPK12 (human) (UniProt P53778)
MAPK12 (human), sequence (P53778 whole entry, looked up): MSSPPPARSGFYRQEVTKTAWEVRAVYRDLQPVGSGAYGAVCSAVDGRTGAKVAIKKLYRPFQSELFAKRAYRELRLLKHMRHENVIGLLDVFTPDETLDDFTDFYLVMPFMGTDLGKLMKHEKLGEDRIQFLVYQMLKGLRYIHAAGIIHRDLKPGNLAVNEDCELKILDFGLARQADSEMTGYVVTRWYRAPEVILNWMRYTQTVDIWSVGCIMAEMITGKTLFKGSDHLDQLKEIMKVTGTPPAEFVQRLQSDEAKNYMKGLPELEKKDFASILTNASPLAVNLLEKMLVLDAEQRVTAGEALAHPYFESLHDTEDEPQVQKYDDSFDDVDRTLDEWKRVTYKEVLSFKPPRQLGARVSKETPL

[21] = biological target: MAPK9 (human) (UniProt P45984)
MAPK9 (human), sequence (P45984 whole entry, looked up): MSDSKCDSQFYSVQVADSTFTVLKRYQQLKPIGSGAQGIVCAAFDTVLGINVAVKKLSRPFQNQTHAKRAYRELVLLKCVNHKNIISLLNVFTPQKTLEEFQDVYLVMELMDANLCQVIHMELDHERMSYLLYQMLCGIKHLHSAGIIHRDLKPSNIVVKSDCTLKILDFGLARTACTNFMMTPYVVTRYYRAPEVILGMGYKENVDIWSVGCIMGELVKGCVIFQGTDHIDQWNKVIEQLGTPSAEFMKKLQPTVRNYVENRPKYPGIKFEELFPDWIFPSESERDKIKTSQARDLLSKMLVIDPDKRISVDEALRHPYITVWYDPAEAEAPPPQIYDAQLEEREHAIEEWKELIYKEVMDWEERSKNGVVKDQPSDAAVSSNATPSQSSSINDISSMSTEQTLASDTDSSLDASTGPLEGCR

[22] = biological target: MAPKAPK2 (human) (UniProt P49137)
[23] = biological target: MARK1 (human) (UniProt Q9P0L2); conditions: compound 0.1 µM
[24] = biological target: MARK2 (human) (UniProt Q7KZI7); conditions: compound 0.1 µM
[25] = biological target: MARK4 (human) (UniProt Q96L34); conditions: compound 0.1 µM
[26] = biological target: MELK (human) (UniProt Q14680)
MELK (human), sequence (Q14680 whole entry, looked up): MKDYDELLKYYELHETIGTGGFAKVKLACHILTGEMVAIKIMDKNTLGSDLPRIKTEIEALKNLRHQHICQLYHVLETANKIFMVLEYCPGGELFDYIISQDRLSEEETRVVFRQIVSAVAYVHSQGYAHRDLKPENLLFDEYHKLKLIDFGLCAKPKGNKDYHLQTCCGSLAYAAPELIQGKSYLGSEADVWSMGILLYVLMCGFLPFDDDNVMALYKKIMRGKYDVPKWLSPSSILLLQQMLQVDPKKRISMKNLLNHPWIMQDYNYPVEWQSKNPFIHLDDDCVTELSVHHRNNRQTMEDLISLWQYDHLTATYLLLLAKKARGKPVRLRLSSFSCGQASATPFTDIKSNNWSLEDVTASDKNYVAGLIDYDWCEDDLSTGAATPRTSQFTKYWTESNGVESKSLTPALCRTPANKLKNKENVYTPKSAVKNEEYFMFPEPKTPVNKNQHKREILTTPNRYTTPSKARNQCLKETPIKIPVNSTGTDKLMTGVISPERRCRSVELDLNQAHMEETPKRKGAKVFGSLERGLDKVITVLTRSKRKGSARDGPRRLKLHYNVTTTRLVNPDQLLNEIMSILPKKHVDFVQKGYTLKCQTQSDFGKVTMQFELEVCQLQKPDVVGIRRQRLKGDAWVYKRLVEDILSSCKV

[27] = biological target: MST4 (human) (UniProt Q9P289)
[28] = biological target: NTRK1 (human) (UniProt P04629); conditions: compound 0.1 µM
[29] = biological target: NUAK1 (human) (UniProt O60285)
[30] = biological target: PAK4 (human) (UniProt O96013)
PAK4 (human), sequence (O96013 whole entry, looked up): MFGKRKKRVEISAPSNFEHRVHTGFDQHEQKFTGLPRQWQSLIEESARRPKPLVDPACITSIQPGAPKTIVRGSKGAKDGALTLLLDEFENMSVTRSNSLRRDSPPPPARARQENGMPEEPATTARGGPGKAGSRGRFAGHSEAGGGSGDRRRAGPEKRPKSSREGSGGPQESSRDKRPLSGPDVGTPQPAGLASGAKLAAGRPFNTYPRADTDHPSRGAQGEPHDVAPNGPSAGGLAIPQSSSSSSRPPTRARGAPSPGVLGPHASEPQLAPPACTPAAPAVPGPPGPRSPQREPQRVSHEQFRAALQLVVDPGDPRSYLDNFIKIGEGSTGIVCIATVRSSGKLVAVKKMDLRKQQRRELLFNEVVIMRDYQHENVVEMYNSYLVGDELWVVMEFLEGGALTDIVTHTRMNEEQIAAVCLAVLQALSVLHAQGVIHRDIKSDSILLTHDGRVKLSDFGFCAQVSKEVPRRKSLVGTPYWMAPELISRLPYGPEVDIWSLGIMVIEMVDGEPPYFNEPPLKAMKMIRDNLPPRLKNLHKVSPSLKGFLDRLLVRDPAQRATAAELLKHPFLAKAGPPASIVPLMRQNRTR

[31] = biological target: PAK6 (human) (UniProt Q9NQU5)
[32] = biological target: PIM1 (human) (UniProt P11309)
PIM1 (human), sequence (P11309 whole entry, looked up): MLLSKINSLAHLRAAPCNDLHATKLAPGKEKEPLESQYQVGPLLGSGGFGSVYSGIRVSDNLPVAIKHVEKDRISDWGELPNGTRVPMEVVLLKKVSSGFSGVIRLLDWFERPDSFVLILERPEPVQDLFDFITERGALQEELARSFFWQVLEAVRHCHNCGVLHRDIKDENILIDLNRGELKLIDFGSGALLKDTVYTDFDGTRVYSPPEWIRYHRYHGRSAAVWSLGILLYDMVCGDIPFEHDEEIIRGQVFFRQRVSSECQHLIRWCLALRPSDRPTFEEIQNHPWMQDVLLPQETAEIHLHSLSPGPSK

[33] = biological target: PKN2 (human) (UniProt Q16513)
[34] = biological target: PRKCA (human) (UniProt P17252)
[35] = biological target: PRKCZ (human) (UniProt Q05513)
[36] = biological target: STK11 CAB39 STRADA (human) (UniProt Q9Y376+Q7RTN6+Q15831)

A residual activity ([1]; compound 0.1 µM) of 104%, a residual activity ([1]; compound 1.0 µM) of 72% and a residual activity ([1]; compound 10.0 µM) of 57% were found for `O=C(O)c1ccc(-c2c[nH]c3ncc(-c4ccccc4)cc23)cc1C1CCCC1` in this work. For the same molecule, the residual activity [2] was 78%, the residual activity [3] was 84% and the residual activity ([4]; compound 0.1 µM) was 101%. For the same molecule, the residual activity ([4]; compound 1.0 µM) was 20%, the residual activity ([4]; compound 10.0 µM) was 2% and the residual activity ([5]; compound 0.1 µM) was 120%. The residual activity ([5]; compound 1.0 µM) was 110%, the residual activity ([6]; compound 0.1 µM) was 92% and the residual activity ([6]; compound 1.0 µM) was 97%. The residual activity ([6]; compound 10.0 µM) was 85%, the residual activity ([7]; compound 0.1 µM) was 108% and the residual activity ([7]; compound 10.0 µM) was 101%. It also gave a residual activity ([8]; compound 0.1 µM) of 105%, a residual activity ([8]; compound 1.0 µM) of 86% and a residual activity ([8]; compound 10.0 µM) of 71%. The residual activity ([9]; compound 0.1 µM) was 94%, the residual activity ([9]; compound 1.0 µM) was 78% and the residual activity ([9]; compound 10.0 µM) was 23%. It also gave a residual activity [10] of 100%, a residual activity ([11]; compound 0.1 µM) of 111% and a residual activity ([11]; compound 1.0 µM) of 100%. For the same molecule, the residual activity ([11]; compound 10.0 µM) was 68%, the residual activity ([12]; compound 0.1 µM) was 20% and the residual activity ([12]; compound 1.0 µM) was 12%. The residual activity ([12]; compound 10.0 µM) was 12%, the residual activity [13] was 93% and the residual activity [14] was 97%. It also gave a residual activity [15] of 92%, a residual activity ([16]; compound 0.1 µM) of 75% and a residual activity ([16]; compound 1.0 µM) of 33%. For the same molecule, the residual activity ([16]; compound 10.0 µM) was 5%, the residual activity [17] was 100% and the residual activity [18] was 115%. It also gave a residual activity ([19]; compound 0.1 µM) of 87%, a residual activity ([19]; compound 1.0 µM) of 38% and a residual activity ([19]; compound 10.0 µM) of 7%. It also gave a residual activity ([20]; compound 0.1 µM) of 106%, a residual activity ([20]; compound 1.0 µM) of 104% and a residual activity ([20]; compound 10.0 µM) of 35%. The residual activity ([21]; compound 0.1 µM) was 80%, the residual activity ([21]; compound 1.0 µM) was 46% and the residual activity ([21]; compound 10.0 µM) was 9%. For the same molecule, the residual activity ([22]; compound 0.1 µM) was 107%, the residual activity ([22]; compound 1.0 µM) was 103% and the residual activity ([22]; compound 10.0 µM) was 96%. It also gave a residual activity [23] of 97%, a residual activity [24] of 88% and a residual activity [25] of 110%. It also gave a residual activity ([26]; compound 0.1 µM) of 100%, a residual activity ([26]; compound 1.0 µM) of 27% and a residual activity ([26]; compound 10.0 µM) of 8%. For the same molecule, the residual activity ([27]; compound 0.1 µM) was 81%, the residual activity ([27]; compound 1.0 µM) was 68% and the residual activity ([27]; compound 10.0 µM) was 13%. For the same molecule, the residual activity [28] was 29%, the residual activity ([29]; compound 0.1 µM) was 45% and the residual activity ([29]; compound 1.0 µM) was 15%. For the same molecule, the residual activity ([29]; compound 10.0 µM) was 10%, the residual activity ([30]; compound 0.1 µM) was 96% and the residual activity ([30]; compound 1.0 µM) was 85%. It also gave a residual activity ([30]; compound 10.0 µM) of 39%, a residual activity ([31]; compound 0.1 µM) of 102% and a residual activity ([31]; compound 1.0 µM) of 103%. For the same molecule, the residual activity ([31]; compound 10.0 µM) was 61%, the residual activity ([32]; compound 0.1 µM) was 91% and the residual activity ([32]; compound 1.0 µM) was 62%. The residual activity ([32]; compound 10.0 µM) was 26%, the residual activity ([33]; compound 0.1 µM) was 76% and the residual activity ([33]; compound 1.0 µM) was 31%. It also gave a residual activity ([33]; compound 10.0 µM) of 5%, a residual activity ([34]; compound 0.1 µM) of 100% and a residual activity ([34]; compound 1.0 µM) of 61%. For the same molecule, the residual activity ([34]; compound 10.0 µM) was 33%, the residual activity ([35]; compound 0.1 µM) was 96% and the residual activity ([35]; compound 1.0 µM) was 105%. The residual activity ([35]; compound 10.0 µM) was 87%, the residual activity ([36]; compound 0.1 µM) was 86% and the residual activity ([36]; compound 1.0 µM) was 89%.
